Reference: patent EP0067711A2, “New 1-benzyl-3,4-dihydro-isoquinoline derivative” (CHINOIN Gyogyszer és Vegyészeti Termékek Gyára RT., priority 1981, dated 1982)

Key:
[1] = system: acute coronary insufficiency induced by vasopressine; assay: anti-angina activity: inhibition of vasopressine-induced acute coronary insufficiency (rise of T-wave on ECG), method of Papp and Szekeres; assay type: in vivo, rats belonging to the CFY strain; conditions: vasopressine 2 IU/kg i.v., pentobarbital anaesthetized CFY rats; papaverin = 1
[2] = system: haemodynamic and cardiovascular system; assay: general effects on the haemodynamic and cardiovascular system in pentobarbital anaesthetized dogs; assay type: in vivo; set-up: A. vertebralis flow, Changed value: unit not given here; conditions: 1 mg/kg i.v.
[3] = system: electric fibrillation threshold of the auricle and ventricle; assay: antiarrhythmial effect: change of electric fibrillation threshold in chloralose-urethane anaesthetized cats; assay type: in vivo; conditions: 1 mg/kg i.v.
Procedure: The antiarrhythmial effect is determined on chloralose-urethane anaesthetized cats [500/300 mg/kg i.p.] by measuring the changes of the electric fibrillation threshold of the auricle and ventricle respectively [method of Szekeres, Méhes and Papp: Brit. 0. Pharmacol. 17, 167 (1961) and that of Szekeres and Papp: Hdb. exp. Pharmacol. 16/3, 131 (1975) respectively]. The general effects exerted on the haemodynamic and cardiovascular system are tested on pentobarbital anaesthetized dogs (35 mg/kg i.v.).

CCOc1cc(CC2=NCCc3cc(OCC)c(OCC)cc32)ccc1O [Formula VII, 6,7-diethoxy-1-(3-ethoxy-4-hydroxy-benzyl)-3,4-dihydro-isoquinoline, reference compound]
anti-angina activity related to that of papaverin [1]: 1.28 | A. carotis flow, Duration of effect [2]: 12 min | A. carotis flow, Percental difference [2]: -12 | A. carotis resistance, Duration of effect [2]: 15 min | A. femoralis flow, Duration of effect [2]: 11 min | A. femoralis resistance, Duration of effect [2]: 18 min | A. vertebralis flow, Duration of effect [2]: 7 min | A. vertebralis resistance, Duration of effect [2]: 12 min | A. vertebralis resistance, Percental difference [2]: +12 | Arterial blood pressure, Duration of effect [2]: 8 min | Arterial blood pressure, Percental difference [2]: -22 | Contractibility of the left ventricle (dp/dt), Percental difference [2]: -13 | Coronary flow, Duration of effect [2]: 15 min | Coronary flow, Percental difference [2]: +18 | Coronary resistance, Duration of effect [2]: 11 min | Coronary resistance, Percental difference [2]: -22 | Efficiency of cardial function, Duration of effect [2]: 20 min | Efficiency of cardial function, Percental difference [2]: -13 | Frequence volume, Duration of effect [2]: 5 min | Function of the left ventricle, Duration of effect [2]: 13 min | Function of the left ventricle, Percental difference [2]: -19 | Heart frequence/min, Duration of effect [2]: 7 min | Minute volume, Duration of effect [2]: 3 min | Myocardial oxygenization (O2 supply per O2 consumption), Duration of effect [2]: 18 min | Myocardial oxygenization (O2 supply per O2 consumption), Percental difference [2]: +10 | Oxygen consumption of the left ventricle, Duration of effect [2]: 9 min | Total peripherial resistance, Duration of effect [2]: 14 min | Total peripherial resistance, Percental difference [2]: -32 | Efficiency of cardial function, Changed value ([2]; average + S.E., basic value 0.32 ± 0.03): 0.28 ± 0.05 mkg/ml/100 g | Coronary resistance, Changed value ([2]; average + S.E., basic value 1.03 ± 0.10): 1.42 ± 0.22 Hgmm/ml/min/100 g | Myocardial oxygenization (O2 supply per O2 consumption), Changed value ([2]; average + S.E., basic value 1.62 ± 0.06): 1.79 ± 0.10 | A. carotis resistance, Changed value ([2]; average + S.E., basic value 2.04 ± 0.3): 2.19 ± 0.4 Hgmm/ml/min | Function of the left ventricle, Changed value ([2]; average + S.E., basic value 2.74 ± 0.49): 2.22 ± 0.56 mkg/min | A. vertebralis resistance, Changed value ([2]; average + S.E., basic value 3.22 ± 0.61): 3.65 ± 0.32 Hgmm/ml/min | A. femoralis resistance, Changed value ([2]; average + S.E., basic value 3.48 ± 0.45): 3.69 ± 0.68 Hgmm/ml/min | Frequence volume, Changed value ([2]; average + S.E., basic value 8,8 ± 1): 9.5 ± 1.2 mL | Oxygen consumption of the left ventricle, Changed value ([2]; average + S.E., basic value 8.4 ± 0.9): 7.9 ± 1.9 ml/min/100 g | A. femoralis flow, Changed value ([2]; average + S.E., basic value 46 ± 5): 42 ± 5 mL/min | A. vertebralis flow, Changed value ([2]; average + S.E., basic value 54 ± 9): 50 ± 7 | Coronary flow, Changed value ([2]; average + S.E., basic value 73 ± 13): 86 ± 13 ml/min/100 g | A. carotis flow, Changed value ([2]; average + S.E., basic value 91 ± 9): 80 ± 10 mL/min | Arterial blood pressure, Changed value ([2]; average + S.E., basic value 147 ± 9): 115 ± 11 Hgmm | Heart frequence/min, Changed value ([2]; average + S.E., basic value 173 ± 8): 160 ± 9 min⁻¹ | Minute volume, Changed value ([2]; average + S.E., basic value 1500 ± 153): 1466 ± 233 mL/min | Contractibility of the left ventricle (dp/dt), Changed value ([2]; average + S.E., basic value 5625 ± 557): 4883 ± 419 Hgmm/sec | Total peripherial resistance, Changed value ([2]; average + S.E., basic value 7015 ± 238): 4785 ± 275 dyn. sec. cm^-5 | Arterial blood pressure, Duration of effect [3]: 5 min | Arterial blood pressure, Percental difference [3]: -23 | Auricle fibrillation threshold, Duration of effect [3]: 9 min | Auricle fibrillation threshold, Percental difference [3]: +48 | Ventricle fibrillation threshold, Duration of effect [3]: 12 min | Ventricle fibrillation threshold, Percental difference [3]: +43 | Auricle fibrillation threshold, Changed value ([3]; average + S.E., basic value 0.52 ± 0.07): 0.77 ± 0.19 mA | Ventricle fibrillation threshold, Changed value ([3]; average + S.E., basic value 0.70 ± 0.10): 1.00 ± 0.18 mA | Arterial blood pressure, Changed value ([3]; average + S.E., basic value 142 ± 11): 110 ± 16 Hgmm
